Assays:
Assay type in all cases: in vivo
Monochoria vaginalis = assay: Herbicidal activity by paddy field soil treatment (Test Example 1); parameters: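 index 0 to 10 in 10% steps of herbicidal effect with 10 meaning complete death and 0 below 10%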; details: 1000 g of effective component per hectare, evaluated on day 21 after the treatment, criteria of Table 72
Method in brief: (§1)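 Paddy soil in pots sown with seeds, flooded to 3 cm; next day wettable powder diluted in water applied to water surface at 1000 g active ingredient/ha. Greenhouse-grown; herbicidal effect scored on day 21 after treatment against rating criteria.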

Scirpus juncoides Rocxb. = assay: as above; parameters: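 index 0 to 10 in 10% steps of herbicidal effect with 10 meaning complete death and 0 below 10%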; details: applied on water surface, 1000 g of effective component per hectare, day 21 after the treatment
Method in brief: as §1

Echinochloa oryzicola = assay: as above; parameters: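 index 0 to 10 in 10% steps of herbicidal effect with 10 meaning complete death and 0 below 10%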; details: 1000 g of effective component per hectare, evaluated on day 21 after the treatment, criteria of Table 72
Method in brief: as §1

Echinochloa crus-galli [1] = assay: Herbicidal activity by field soil treatment (Test example 2); parameters: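 index 0 to 10 in 10% steps of herbicidal effect with 10 meaning complete death and 0 below 10%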; details: 1000 g effective component per hectare, day 21 after the treatment
Method in brief: (§2)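 Seeds of the four weeds sown in field soil in pots; wettable powder diluted in water sprayed pre-emergence on soil surface at 1000 L/ha, giving 1000 g active per hectare. Greenhouse grown; herbicidal effect scored on day 21 after treatment by set criteria.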

A. retroflexus [2] = assay: as above; parameters: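 index 0 to 10 in 10% steps of herbicidal effect with 10 meaning complete death and 0 below 10%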; details: 1000 g effective component per hectare, day 21 after the treatment
Method in brief: as §2

Indian millet [3] = assay: as above; parameters: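 index 0 to 10 in 10% steps of herbicidal effect with 10 meaning complete death and 0 below 10%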; details: 1000 g effective component per hectare, day 21 after the treatment
Method in brief: as §2

A. retroflexus [4] = assay: Herbicidal activity by field foliage treatment (Test example 3); parameters: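 index 0 to 10 in 10% steps of herbicidal effect with 10 meaning complete death and 0 below 10%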; details: 1000 g effective component per hectare, day 14 after the treatment
Method in brief: (§3)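 Field soil in pots; Indian millet and A. retroflexus grown 2 weeks in greenhouse, then sprayed over whole plant with water-diluted wettable powder at 1000 L/ha, giving 1000 g active component/ha. Herbicidal effect scored by set criteria on day 14 after treatment.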

Indian millet [5] = assay: as above; parameters: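 index 0 to 10 in 10% steps of herbicidal effect with 10 meaning complete death and 0 below 10%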; details: 1000 g effective component per hectare, day 14 after the treatment
Method in brief: as §3

foxtail = assay: Herbicidal activity by field soil treatment (Test example 2); details: 1000 g effective component per hectare, day 21 after the treatment;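 note: index 0 to 10 in 10% steps of herbicidal effect with 10 meaning complete death and 0 below 10%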
Description: [table] Test for Determining Herbicidal Activity by Field Soil Treatment A 80 cm^2 wide plastic pot was filled with a field soil and seeds of each of Echinochloa crus-galli, foxtail, Indian millet, and A. retroflexus were sowed and then covered with soil. The wettable powder produced with reference to the Formulation example 1 was diluted water, and applied on the soil surface by using a small sprayer in an amount of 1000 liters per hectare so that the effective component is 1000 g per hectare. After that, the plants were cultivated in a greenhouse, and on day 21 after the treatment, evaluation was made by the criteria described in Table 72 for determining the herbicidal effects.

Echinochloa crus-galli [6] = assay: Herbicidal activity by field foliage treatment (Test example 3); parameters: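 index 0 to 10 in 10% steps of herbicidal effect with 10 meaning complete death and 0 below 10%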; details: 1000 g effective component per hectare, day 14 after the treatment
Method in brief: (§4)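 Potted field-soil plants grown 2 weeks in a greenhouse were sprayed over the whole foliage with diluted wettable powder at 1000 L/ha, delivering 1000 g active ingredient per hectare. Herbicidal effect scored by visual criteria 14 days after treatment.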

Setaria viridis = assay: as above; details: 1000 g effective component per hectare, day 14 after the treatment;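 note: index 0 to 10 in 10% steps of herbicidal effect with 10 meaning complete death and 0 below 10%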
Method in brief: as §4

SMILES | Herbicidal effects index number, Monochoria vaginalis (Monochoria vaginalis) | herbicidal effect index, S. juncoides Rocxb. (Scirpus juncoides Rocxb.) | Herbicidal effects index number, Echinochloa oryzicola (Echinochloa oryzicola) | herbicidal effect index, Echinochloa crus-galli (Echinochloa crus-galli [1]) | herbicidal effect index, Amaranthus retroflexus (A. retroflexus [2]) | herbicidal effect index, Abutilon theophrasti (Indian millet [3]) | herbicidal effect index, Amaranthus retroflexus (A. retroflexus [4]) | herbicidal effect index, Abutilon theophrasti (Indian millet [5]) | herbicidal effect index, Setaria viridis (foxtail) | herbicidal effect index, Echinochloa crus-galli (Echinochloa crus-galli [6]) | herbicidal effect index, Setaria viridis (Setaria viridis)
COc1cc(-n2c(=O)c(C(=O)C3=C(O)CCCC3=O)nn(C)c2=O)ccc1Cl [I-131] | 10 | 10 | 9 | 9 | 10 | 9 | 10 | 10 | 7 | 10 | 
COc1ccc(-n2c(=O)c(C(=O)C3=C(O)CCCC3=O)nn(C)c2=O)cc1F [I-99] | 10 | 10 | 10 | 8 | 10 | 9 | 10 | 10 | 6 | 9 | 
Cc1ccc(-n2c(=O)c(C(=O)C3=C(O)CCCC3=O)nn(C)c2=O)cc1C [I-87] | 10 | 10 | 9 | 9 | 9 | 9 | 10 | 9 | 6 | 9 | 
COc1cc(-n2c(=O)c(C(=O)C3=C(O)CCCC3=O)nn(C)c2=O)ccc1F [I-111] | 10 | 10 | 10 | 9 | 10 | 9 | 10 | 10 | 7 | 10 | 
Cc1c(Cl)cccc1-n1c(=O)c(C(=O)C2=C(O)CCCC2=O)nn(C)c1=O [I-136] | 10 | 10 | 9 |  | 9 | 9 | 10 | 9 | 8 | 9 | 9
Cn1nc(C(=O)C2=C(O)CCCC2=O)c(=O)n(-c2cccc(-c3ccccc3)c2)c1=O [I-270] | 8 | 8 | 8 | 8 | 10 |  | 10 | 9 | 7 | 9 | 
Cc1cc(I)ccc1-n1c(=O)c(C(=O)C2=C(O)CCCC2=O)nn(C)c1=O [I-283] | 10 | 10 | 10 | 9 | 10 | 9 | 8 | 8 | 8 | 8 | 
Cn1nc(C(=O)C2=C(O)CCCC2=O)c(=O)n(CC(=O)OC(C)(C)C)c1=O [I-294] | 9 | 9 | 9 | 9 | 10 | 9 | 8 | 7 | 7 | 9 | 
Cn1nc(C(=O)C2=C(O)CCCC2=O)c(=O)n(-c2ccc(Cl)nc2)c1=O [I-280] | 10 | 10 | 10 | 9 | 10 | 9 | 10 | 9 | 8 | 9 | 
COc1cccc(OC)c1-n1c(=O)c(C(=O)C2=C(O)CCCC2=O)nn(C)c1=O [Compound I-98] |  |  |  | 7 |  | 7 | 8 | 9 | 7 | 7 | 
CSc1c(Cl)cc(-n2c(=O)c(C(=O)O)nn(C)c2=O)cc1Cl [V-300] | 10 | 10 | 10 | 7 | 10 | 9 | 10 | 9 |  | 8 | 8
COc1c(Cl)cc(-n2c(=O)c(C(=O)C3=C(O)CCCC3=O)nn(C)c2=O)cc1Cl [I-299] | 10 | 10 | 10 | 9 | 10 | 10 | 10 | 9 | 10 | 8 | 
COc1cc(-n2c(=O)c(C(=O)C3=C(O)CCCC3=O)nn(C)c2=O)ccc1C [I-155] | 10 | 10 | 10 |  | 10 | 10 | 10 | 10 | 7 | 9 | 7
Cc1ccc(-n2c(=O)c(C(=O)C3=C(O)C(C)(C)C(=O)C(C)(C)C3=O)nn(C)c2=O)c(C)c1 [VI-65] | 10 | 10 | 10 |  | 10 | 10 | 10 | 10 | 7 | 9 | 7
CC(C)N(c1ccccc1)n1c(=O)c(C(=O)C2=C(O)CCCC2=O)nn(C)c1=O [I-475] | 10 | 10 | 10 | 7 | 7 | 7 | 9 | 8 |  | 9 | 7
CC(C)n1nc(C(=O)C2=C(O)CCCC2=O)c(=O)n(-c2ccccc2)c1=O [I-260] | 10 | 10 | 10 | 10 | 10 | 10 | 10 | 10 | 5 | 8 | 
